Publication PMC8399847, “Hybrid Quinolinyl Phosphonates as Heterocyclic Carboxylate Isosteres: Synthesis and Biological Evaluation against Topoisomerase 1B (TOP1B)” (Pharmaceuticals, 2021)

How the values were obtained:
Assay type in all cases: cell-based
[1] = test system: SKOV3 (human ovarian carcinoma); assay: CCK-8 cytotoxicity assay, SKOV3; conditions: SK-OV-3, SKOV3, 48 h, CCK-8, 50% growth inhibition, read-out: Cytotoxicity IC50 Ovarian SKOV3
Description: (§1) The cytotoxicity of the newly synthesized quinolinylphosphonates 7 was evaluated in vitro by testing their antiproliferative activities against several human cancer cell lines: A549 (human lung adenocarcinoma cells), SKOV3 (human ovarian carcinoma), and HEK293 (human embryonic kidney). In order to analyze the selective cytotoxicity facing exclusively cancerous cell lines, cytotoxicity against non-cancerous cell lines (MRC-5, lung fibroblast cells) was also evaluated. Cell counting kit (CCK-8) assay was employed to assess growth inhibition and, cell proliferation inhibitory activities of compounds that are listed in Table 1 as IC50 values. […] According to the data presented in Table 1, in general, all these phosphorated derivatives present higher selective cytotoxicity in the A549 cell line than in the other two cell lines, SKOV3 and HEK293, although slight differences are observed compared to human ovarian carcinoma (SKOV3).
(§2) Cells were cultured according to the supplier’s instructions, A549 (ATCC® CCL-185), SKOV3 (ATCC® HTB-77), HEK293 (CLS GmbH), MRC-5 (ATCC® CCL-171™). Cells were seeded in 96-well plates at a density of 2–2.5 × 10^3 cells per well and incubated overnight in 0.1 mL of media supplied with 10% Fetal Bovine Serum (Lonza, Basel, Switzerland) in a 5% CO2 incubator at 37 °C. On day 2, drugs (concentration between 0.5–50 μM) were added and samples were incubated for 48 h. After treatment, 10 μL of cell counting kit-8 was added to each well for an additional 2 h incubation at 37 °C. The absorbance of each well was determined by an Automatic Elisa Reader System at 450 nm wavelength. CPT was purchased from Sigma-Aldrich and used as a positive control.

[2] = test system: A549 (human lung adenocarcinoma cells); assay: CCK-8 cytotoxicity assay, A549; conditions: A549, 48 h, CCK-8, 50% growth inhibition, read-out: Cytotoxicity IC50 Lung A549
Description: as §1, §2

[3] = CCK-8 cytotoxicity assay, MRC-5 non-cancerous cells; conditions: human, MRC-5 non-malignant lung fibroblast cells, MRC-5 non-malignant lung fibroblasts
Description: as §1, §2

CC[C@@]1(O)C(=O)OCc2c1cc1n(c2=O)Cc2cc3ccccc3nc2-1 [CPT, Camptothecin, reference compound] gave an IC50 [1] of 5.5 nM, an IC50 [2] of 1 nM and an IC50 at 48 h [3] of 0.017 nM.
